According to patent publication US11020468B2, “Compositions, methods and therapies for administering antigen peptide” (priority 2010, dated 2021):

How the values were obtained:
P. acnes (ATCC6919) = test: Anti-inflammatory effect of peptides against intradermic inflammation caused by P. acnes in mice; format: in vivo, Balb/c mice; settings: for anti-inflammatory effect against inflammation caused by P. acnes: vs PBS
Procedure: Living bacterial cells of P. acnes were put in a deaerated physiological saline while keeping an anaerobic condition to prepare a suspension with the number of the living bacterial cells of P. acnes of 5×10^7 cells/ml, 1×10^8 cells/ml, or 5×10^8 cells/ml. The anaerobic condition was kept by spraying a nitrogen gas. The number of the living bacterial cells of P. acnes was calculated based on the assumption that OD measurement value of 0.98-1.02 at 550 nm measured by a spectrophotometer corresponds to 5×10^8 cells/ml, with reference to Ramstad S. et al., Photochem. Photobiol. Sci., 2006, 5, 66-72.
50 μl of the prepared suspension of P. acnes was intradermically injected into shaven abdominal midlines, neck portions, lumbar dorsal portions, tail root dorsal portions, and auricles of male Balb/c mice (9-10 weeks old). The inflammatory areas (major axis×minor axis: mm^2) at individual portions to which the suspension was injected intradermically were measured at predetermined times. Each group consisted of five individuals.
Accordingly, the anti-inflammatory effects of individual peptides were determined under the same conditions, i.e. by intradermically injecting 50 μl of P. acnes (5×10^8 cells/ml) into the abdominal midline and measuring the inflammatory area (mm^2) five days after the injection. FIG. 3 illustrates the procedure for examining the anti-inflammatory effect.
(§1) FIG. 3 is a drawing schematically illustrating the procedure for examining the anti-inflammatory effect. […] Then, P. acnes was intradermically injected into the abdominal midlines of the mice, and the inflammatory areas were measured 5 days after the injection (Day “23” in FIG. 3). Each group consisted of 10 mice. As Comparative Examples, there were prepared a group of mice to which PBS without PepA was administered and a group of mice to which PepB or PepC was administered instead of PepA, and P. acnes was injected into the groups similarly.
The anti-inflammatory effects of individual peptides were examined using an inflammation causing system under the same conditions as in Example 4 except that the peptides to be administered to mice before injection of P. acnes were changed from PepA, PepB, and PepC to PepA and PepD.

[1] = test system: acne-patient-derived P. acnes (patient strains 1-3); test: Anti-inflammatory effect of PepA against inflammation caused by patient-derived P. acnes in mice; format: in vivo; settings: for P (inflammatory area compared with control group given PBS): 5 days after injection
Procedure: as §1
The anti-inflammatory effect of PepA was examined by the same procedure as in Example 5 except that bacterial cells of P. acnes to be injected into mice were the acne-patient-derived bacterial cells of P. acnes which were isolated in Example 6.
FIG. 7 is a graph showing the result of intradermically injecting, after immunization by PepA, the patient strains 1-3 (P1-P. acnes to P3-P. acnes) to the abdominal midlines of mice and measuring inflammatory areas of the mice 5 days after the injection.

[2] = Example 5, same conditions as Example 4
[3] = Example 4, 40 μg/50 μl intradermal, three times, area 5 days after P. acnes injection into abdominal midline
[4] = Example 4, 40 μg/50 μl intradermal, three times, area 5 days after injection

Row | Sequence | P (inflammatory area compared with control group given PBS) (P. acnes (ATCC6919); [2]) | anti-inflammatory effect against inflammation caused by P. acnes (P. acnes (ATCC6919); [2]) | P (inflammatory area compared with control group given PBS) (P. acnes (ATCC6919); [3]) | anti-inflammatory effect against inflammation caused by P. acnes (P. acnes (ATCC6919); [4]) | anti-inflammatory effect against injection of patient strains ([1]; each of patient strains 1-3, vs PBS) | P (inflammatory area compared with control group given PBS) ([1]; patient strain 1) | P (inflammatory area compared with control group given PBS) ([1]; patient strain 2) | P (inflammatory area compared with control group given PBS) ([1]; patient strain 3)
1 | KDADKDNPTYQKV (Propionibacterium acnes) [PepD, residues 260-272 of P. acnes membrane protein YP_056445] | 0.00175 | statistically significantly reduced inflammatory area |  |  |  |  |  | 
2 | GRKPDTNKRSWHRKASR [PepB, reference compound] |  |  | 1 | do not exhibit the anti-inflammatory effect |  |  |  | 
3 | AIQEKYGDDRERAG (Propionibacterium acnes) [PepA, residues 90-103 of P. acnes membrane protein AAT84059] | 0.0012 | statistically significantly reduced inflammatory area | 0.00865 | statistically significantly reduced inflammatory area | statistically significantly reducing an inflammatory area | 0.0252 | 0.0476 | 0.0237
4 | IDQVREYRHRDDDDDEDPGEDG [PepC, reference compound] |  |  | 0.1655 | do not exhibit the anti-inflammatory effect |  |  |  | 
